Numbered stars: 1 amine (or outer) side, 2 acyl side, 3 side chain; on linkers, the order of the positions; unused ones are H or OH. Square brackets hold non-standard residues; d marks the D form. Peptide text beside a SMILES is read from it. * marks the point of attachment. X2 = Cc1ccc(S(=O)(=O)O)cc1C1=C2C=CC(=N)C=C2[Si](C)(C)c2cc(N*)ccc21; X1 = Nc1ccc2c(c1)Oc1cc(N*)ccc1C21OCc2cc(S(=O)(=O)O)ccc21; Suc = O=C(CCC(=O)[*:2])[*:1]
Tests used:
Type in all cases: biochemical
[1] = tested on: aminopeptidase activity in human plasma sample; assay: Enzyme activity assay in microdevice with human plasma, aminopeptidase probes; conditions: 50 μM probe
Protocol: • 1. Ala-sHMRG as a fluorescent probe for detecting aminopeptidase activity was diluted with an assay buffer to 100 μM. The composition of the assay buffer is 100 mM HEPES-NaOH (pH 7.4), 1 mM MgCl2, 0.1% BSA, 1 mM DTT, 1 mM Triton X-100, • 2. Next, a human plasma sample was diluted by 500 times with the above assay buffer, and mixed in an equal amount with the diluted solution of the probe. At this time, the final concentrations of both are 50 μM for Ala-sHMRG and 1,000 fold dilution for the human plasma sample. • 3. The mixed solution of both was then added to a microdevice, followed by the addition of sealing oil to enclose the solution in each well. • 4. The microdevice in which the solution was enclosed was incubated at 37° C. for 4 hours, and then the fluorescence intensity of each well was measured with a fluorescence microscope.
(§1) • 1. Leu-sHMRG as a fluorescent probe for detecting aminopeptidase activity was diluted with an assay buffer to 100 μM. The composition of the assay buffer is 100 mM HEPES-NaOH (pH 7.4), 1 mM MgCl2, 1 mM DTT, 3 mM Triton X-100. • 2. Next, a human plasma sample was diluted by 2,500 times with the above assay buffer, and mixed in an equal amount with the diluted solution of the probe. At this time, the final concentrations of both are 50 μM for Leu-sHMRG and 5,000 fold dilution for the human plasma sample. • 3. The mixed solution of both was then added to a microdevice, followed by the addition of sealing oil to enclose the solution in each well. • 4. The microdevice in which the solution was enclosed was incubated at 37° C. for 4 hours, and then the fluorescence intensity of each well was measured with a fluorescence microscope.
(§2) • 5. Met-sHMRG as a fluorescent probe for detecting aminopeptidase activity was diluted with an assay buffer to 100 μM. The composition of the assay buffer is 100 mM HEPES-NaOH (pH 7.4), 1 mM MgCl2, 1 mM CaCl2, 1 mM DTT, 3 mM Triton X-100. • 6. Next, a human plasma sample was diluted by 500 times with the above assay buffer, and mixed in an equal amount with the diluted solution of the probe. At this time, the final concentrations of both are 50 μM for Met-sHMRG and 1,000 fold dilution for the human plasma sample. • 7. The mixed solution of both was then added to a microdevice, followed by the addition of sealing oil to enclose the solution in each well. • 8. The microdevice in which the solution was enclosed was incubated at 37° C. for 2 hours, and then the fluorescence intensity of each well was measured with a fluorescence microscope.
as §2, with “• 9. Tyr-sHMRG” for “• 5. Met-sHMRG”, “• 10.” for “• 6.”, “for Tyr-sHMRG” for “for Met-sHMRG”, “• 11.” for “• 7.”, “• 12.” for “• 8.”, “for 4” for “for 2”
• 1. Lys-sHMRG as a fluorescent probe for detecting aminopeptidase activity was diluted with an assay buffer to 100 μM. The composition of the assay buffer is 100 mM HEPES-NaOH (pH 7.4), 1 mM MgCl2, 1 mM CaCl2, 1 mM DTT, 3 mM Triton X-100. • 2. Next, a human plasma sample was diluted by 10,000 times with the above assay buffer, and mixed in an equal amount with the diluted solution of the probe. At this time, the final concentrations of both are 50 μM for Lys-sHMRG and 20,000 fold dilution for the human plasma sample. • 3. […]

[2] = tested on: protease activity in human plasma sample; assay: Enzyme activity assay in microdevice with human plasma, protease probes
Protocol: (§3) • 1. Suc-AAPA-sHMRG as a fluorescent probe for detecting protease activity was diluted with an assay buffer to 200 μM. The composition of the assay buffer is 100 mM HEPES-NaOH (pH 7.4), 1 mM MgCl2, 1 mM CaCl2, 1 mM DTT, 3 mM Triton X-100. • 2. Next, a human plasma sample was diluted by 250 times with the above assay buffer, and mixed in an equal amount with the diluted solution of the probe. At this time, the final concentrations of both are 100 μM for Suc-AAPA-sHMRG and 500 fold dilution for the human plasma sample. • 3. The mixed solution of both was then added to a microdevice, followed by the addition of sealing oil to enclose the solution in each well. • 4. The microdevice in which the solution was enclosed was incubated at 37° C. for 4 hours, and then the fluorescence intensity of each well was measured with a fluorescence microscope.
• 1. Ac-LRGG-sSiR as a fluorescent probe for detecting protease activity was diluted with an assay buffer to 100 μM. The composition of the assay buffer is 100 mM HEPES-NaOH (pH 7.4), 1 mM MgCl2, 1 mM CaCl2, 1 mM DTT, 3 mM Triton X-100. • 2. Next, a human plasma sample was diluted by 10,000 times with the above assay buffer, and mixed in an equal amount with the diluted solution of the probe. At this time, the final concentrations of both are 50 μM for Ac-LRGG-sSiR and 20,000 fold dilution for the human plasma sample. • 3. The mixed solution of both was then added to a microdevice, followed by the addition of sealing oil to enclose the solution in each well. • 4. The microdevice in which the solution was enclosed was incubated at 37° C. for 2 hours, and then the fluorescence intensity of each well was measured with a fluorescence microscope.
• 1. EP-sSiR as a fluorescent probe for detecting protease activity was diluted with an assay buffer to 60 μM. […] The microdevice in which the solution was enclosed was incubated at 25° C. for 2 hours, and then the fluorescence intensity of each well was measured with a fluorescence microscope.

[3] = tested on: peptidase activity in human plasma sample; assay: Enzyme activity assay in microdevice with human plasma, peptidase probes; conditions: 50 μM probe
Protocol: as §1, with “1. GP-sHMRG” for “1. Leu-sHMRG”, “detecting peptidase” for “detecting aminopeptidase”, “MgCl2, 1 mM CaCl2,” for “MgCl2,”, “for GP-sHMRG” for “for Leu-sHMRG”, “at 25°” for “at 37°”, “for 2” for “for 4”
as §3, with “1. Ac-Ala-sHMRG” for “1. Suc-AAPA-sHMRG”, “detecting peptidase” for “detecting protease”, “to 100” for “to 200”, “are 50” for “are 100”, “for Ac-Ala-sHMRG” for “for Suc-AAPA-sHMRG”
• 1. Ac-GP-sSiR as a fluorescent probe for detecting peptidase activity was diluted with an assay buffer to 100 μM. The composition of the assay buffer is 100 mM HEPES-NaOH (pH 7.4), 1 mM MgCl2, 1 mM CaCl2, 1 mM DTT, 3 mM Triton X-100. • 2. […] The microdevice in which the solution was enclosed was incubated at 37° C. for 2 hours, and then the fluorescence intensity of each well was measured with a fluorescence microscope.

[4] = human plasma 1,000 fold dilution, 37° C. for 2 hours
[5] = human plasma 20,000 fold dilution, 37° C. for 2 hours
[6] = human plasma 1,000 fold dilution, 37° C. for 4 hours

## CSCC[C@H](N)C(=O)Nc1ccc2c(c1)Oc1cc(N)ccc1C21OCc2cc(S(=O)(=O)O)ccc21 (stereo partly shown) [Met-sHMRG]
[1]; [4]
  fluorescence intensity of wells in which the reacting enzyme was enclosed: increase in fluorescence intensity was observed

## Cc1ccc(S(=O)(=O)O)cc1C1=C2C=CC(=N)C=C2[Si](C)(C)c2cc(NC(=O)C3CCCN3C(=O)[C@@H](N)CCC(=O)O)ccc21 (stereo partly shown) [EP-sSiR]
[2]; 30 μM probe, human plasma 5,000 fold dilution, 25° C. for 2 hours
  fluorescence intensity of wells in which the reacting enzyme was enclosed: increase in fluorescence intensity was observed

## CC(=O)NCC(=O)N1CCCC1C(=O)Nc1ccc2c(c1)[Si](C)(C)C1=CC(=N)C=CC1=C2c1cc(S(=O)(=O)O)ccc1C (stereo not shown) [Ac-GP-sSiR]
[3]; [5]
  fluorescence intensity of wells in which the reacting enzyme was enclosed: increase in fluorescence intensity was observed

## CC(C)C[C@H](N)C(=O)Nc1ccc2c(c1)Oc1cc(N)ccc1C21OCc2cc(S(=O)(=O)O)ccc21 (stereo partly shown) [Leu-sHMRG]
[1]; human plasma 5,000 fold dilution, 37° C. for 4 hours
  fluorescence intensity of wells in which the reacting enzyme was enclosed: increase in fluorescence intensity was observed

## Nc1ccc2c(c1)Oc1cc(NC(=O)[C@@H](N)Cc3ccc(O)cc3)ccc1C21OCc2cc(S(=O)(=O)O)ccc21 (stereo partly shown) [Tyr-sHMRG]
[1]; [6]
  fluorescence intensity of wells in which the reacting enzyme was enclosed: increase in fluorescence intensity was observed

## NCCCC[C@H](N)C(=O)Nc1ccc2c(c1)Oc1cc(N)ccc1C21OCc2cc(S(=O)(=O)O)ccc21 (stereo partly shown) [Lys-sHMRG]
[1]; [5]
  fluorescence intensity of wells in which the reacting enzyme was enclosed: increase in fluorescence intensity was observed

## Cc1ccc(S(=O)(=O)O)cc1C1=C2C=CC(=N)C=C2[Si](C)(C)c2cc(NC(=O)[C@@H](N)CCCNC(=N)N)ccc21 [Arg-sSiR]
[1]; [6]
  fluorescence intensity of wells in which the reacting enzyme was enclosed: increase in fluorescence intensity was observed

## CC(=O)N[C@@H](C)C(=O)Nc1ccc2c(c1)Oc1cc(N)ccc1C21OCc2cc(S(=O)(=O)O)ccc21 (stereo partly shown) [Ac-Ala-sHMRG]
[3]; human plasma 500 fold dilution, 37° C. for 4 hours
  fluorescence intensity of wells in which the reacting enzyme was enclosed: increase in fluorescence intensity was observed

## Nc1ccc2c(c1)Oc1cc(NC(=O)CC[C@@H](N)C(=O)O)ccc1C21OCc2cc(S(=O)(=O)O)ccc21 (stereo partly shown) [gGlu-sHMRG]
[1]; [4]
  fluorescence intensity of wells in which the reacting enzyme was enclosed: increase in fluorescence intensity was observed

## CC(=O)N[C@@H](CC(C)C)C(=O)N[C@H](CCCNC(=N)N)C(=O)NCC(=O)NCC(=O)Nc1ccc2c(c1)[Si](C)(C)C1=CC(=N)C=CC1=C2c1cc(S(=O)(=O)O)ccc1C [Ac-LRGG-sSiR] (Ac-L[dR]GG-X2)
[2]; 50 μM probe, human plasma 20,000 fold dilution, 37° C. for 2 hours
  fluorescence intensity of wells in which the reacting enzyme was enclosed: increase in fluorescence intensity was observed

## Cc1ccc(S(=O)(=O)O)cc1C1=C2C=CC(=N)C=C2[Si](C)(C)c2cc(NC(=O)[C@@H](N)Cc3c[nH]c4ccccc34)ccc21 [Trp-sSiR]
[1]; [6]
  fluorescence intensity of wells in which the reacting enzyme was enclosed: increase in fluorescence intensity was observed

## C[C@H](N)C(=O)Nc1ccc2c(c1)Oc1cc(N)ccc1C21OCc2cc(S(=O)(=O)O)ccc21 (stereo partly shown) [Ala-sHMRG]
[1]; [6]
  fluorescence intensity of wells in which the reacting enzyme was enclosed: increase in fluorescence intensity was observed

## C[C@H](NC(=O)CCC(=O)O)C(=O)N[C@@H](C)C(=O)N1CCC[C@@H]1C(=O)N[C@@H](C)C(=O)Nc1ccc2c(c1)Oc1cc(N)ccc1C21OCc2cc(S(=O)(=O)O)ccc21 (stereo partly shown) [Suc-AAPA-sHMRG] (Suc-AA[dP]A-X1)
[2]; 100 μM probe, human plasma 500 fold dilution, 37° C. for 4 hours
  fluorescence intensity of wells in which the reacting enzyme was enclosed: increase in fluorescence intensity was observed

— patent US20250313879A1, “Fluorescent Probe for Detecting Peptide Bond Hydrolase” (The University of Tokyo, priority 2022, published 2025)
